Laboratory results: patent US20250326769A1, “HETEROAROMATIC MACROCYCLIC ETHER CHEMOTHERAPEUTIC AGENTS” (Nuvalent, Inc., priority 2022, published 2025)
pIC50, pKi: −log10 of the molar value. Read-outs that look alike come from different tables or passages of the source.

Key:
[1] = target: Ba/F3 EML4-ALK v1 I1171N/D1203N (Homo sapiens (Human), UniProt Q9HC35+Q9UM73, D1203N/I1171N); assay: Ba/F3 cell proliferation assay, EML4-ALK v1 I1171N/D1203N; type: cell-based; conditions: for pIC50: Ba/F3 stable cells, 72 hours, CellTiter-Glo
In short: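 Ba/F3 cells made IL-3-independent by retroviral EML4-ALK v1 I1171N/D1203N and selected with puromycin, then treated with 3-fold compound dilutions for 72 h. Viability by CellTiter-Glo luminescence; IC50 from four-parameter logistic fit.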

[2] = target: ALK I1171N/D1203N (Homo sapiens (Human), UniProt Q9UM73, D1203N/I1171N); assay: Biochemical kinase assay, ALK I1171N/D1203N; conditions: apparent inhibitory constant, kinase domain, Morrison equation; read-out: ALK-I1171N-D1203N Ki^app
In short: (§1)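 Kinase domains (in enzyme solution: ALK I1171N/D1203N 4 nM, ROS1 0.6 nM, ROS1-G2032R 0.5 nM, TRKB 1.5 nM) were mixed with substrate solution holding 2 mM ATP and 26 μM AQT0101 (ALK, ROS1) or AQT0104 (TRKB). Initial rates from 120-min fluorescence kinetics at 30 °C were fitted to the Morrison equation (Ki^app).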

[3] = target: TRKB-wt (Homo sapiens (Human), UniProt Q16620); assay: Biochemical kinase assay, TRKB-wt; conditions: apparent inhibitory constant, kinase domain, Morrison equation; read-out: TRKB-wt Ki^app
In short: as §1

[4] = target: Ba/F3 EML4-ALK v1 I1171N (Homo sapiens (Human), UniProt Q9HC35+Q9UM73, I1171N); assay: Ba/F3 cell proliferation assay, EML4-ALK v1 I1171N; type: cell-based; conditions: for pIC50: Ba/F3 stable cells, 72 hours, CellTiter-Glo; for ETV6-TRKB / EML4-ALK v1 I1171N: TRKB selectivity, ratio of Ba/F3 IC50 values
In short: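 Ba/F3 cells stably transformed with retroviral EML4-ALK v1 I1171N, selected by IL-3 withdrawal and puromycin, grown IL-3-free. Compounds added as 3-fold dilution series, 72 h incubation; viability by CellTiter-Glo luminescence. IC50 from percent inhibition by four-parameter logistic fit, binned A/B/C.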

[5] = target: Ba/F3 ETV6-TRKB (Homo sapiens, UniProt Q16620); assay: Ba/F3 cell proliferation assay, ETV6-TRKB; type: cell-based
In short: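 Ba/F3 cells retrovirally transduced with ETV6-TRKB and selected for IL-3-independent growth with puromycin were treated with 3-fold compound dilutions for 72 h. Viability read by CellTiter-Glo luminescence; IC50 from percent inhibition by four-parameter logistic fit.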

[6] = target: ROS1 (Homo sapiens (Human), UniProt P08922); assay: Biochemical kinase assay, ROS1-wt; conditions: apparent inhibitory constant, kinase domain, Morrison equation; read-out: ROS1-wt Ki^app
Procedure: (§2) First, 250 nL of compound dissolved in DMSO (100-fold of the desired concentration) was dispensed into a 384-well plate. A 12.5 μL substrate solution containing ATP (2 mM) and fluorogenic phosphorylation substrate AQT0101 ([…] for ALK and ROS, AssayQuant) or AQT0104 (26 μM for TRKB, AssayQuant) in buffer (50 mM HEPES pH 7.5, […], 0.5 mM EGTA, 10 mM MgCl2) was added and mixed thoroughly. Then, a 12.5 μL kinase solution containing ALK (1.5 nM, Carna, 08-518), ALK I1171N/D1203N (4 nM, SignalChem, custom-made), ROS1 (0.6 nM, Carma, 08-163), ROS1-G2032R (0.5 nM, SignalChem, R14-121BG), or TRKB-wt (1.5 nM, SignalChem, N17-11G) kinase domains in buffer ([…] pH 7.5, 0.01% Brij-[…], 0.4 mg/mL BSA, 0.5 mM EGTA, and 10 mM MgCl2) was added and mixed thoroughly. The plate was sealed and read by SpectraMax Paradigm at λ=485 nm every 2 minutes for 120 minutes at 30° C. Initial rates of reaction (v) were calculated from the change in fluorescence intensity over time during the initial, linear portion of the reaction. Finally, apparent inhibitory constants (Ki^app) were determined from regression of v and I (inhibitor concentration) to Morrison Equation (E=enzyme concentration): […]
(§3) Compound potency can be interpreted by binning Ki^app values against the targets: bin A for high potency, Ki^app<50 nM; bin B for medium potency, 50 nM≤Ki^app<500 nM; and bin C for low potency, Ki^app≥500 nM. […] “nd” means not determined.

[7] = target: ROS1-G2032R (Homo sapiens (Human), UniProt P08922, G2032R); assay: Biochemical kinase assay, ROS1-G2032R; conditions: apparent inhibitory constant, kinase domain, Morrison equation; read-out: ROS1-G2032R Ki^app
Procedure: as §2, §3

[8] = TRKB selectivity, ratio of Ba/F3 IC50 values
[9] = Ba/F3 stable cells, 72 hours, CellTiter-Glo; read-out: ETV6-TRKB IC50

ROS1-G2032R, sequence (P08922 1945-2222 G2032R): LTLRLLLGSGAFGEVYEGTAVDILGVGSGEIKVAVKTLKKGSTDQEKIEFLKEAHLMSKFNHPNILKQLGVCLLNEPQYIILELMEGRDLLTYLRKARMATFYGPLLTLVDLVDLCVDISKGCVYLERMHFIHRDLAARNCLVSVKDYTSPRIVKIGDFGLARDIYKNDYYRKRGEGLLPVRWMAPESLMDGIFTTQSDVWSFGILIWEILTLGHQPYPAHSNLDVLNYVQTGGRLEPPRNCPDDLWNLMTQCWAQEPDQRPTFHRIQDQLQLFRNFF
Ba/F3 ETV6-TRKB, sequence (Q16620 32-822 limits assumed, change not shown): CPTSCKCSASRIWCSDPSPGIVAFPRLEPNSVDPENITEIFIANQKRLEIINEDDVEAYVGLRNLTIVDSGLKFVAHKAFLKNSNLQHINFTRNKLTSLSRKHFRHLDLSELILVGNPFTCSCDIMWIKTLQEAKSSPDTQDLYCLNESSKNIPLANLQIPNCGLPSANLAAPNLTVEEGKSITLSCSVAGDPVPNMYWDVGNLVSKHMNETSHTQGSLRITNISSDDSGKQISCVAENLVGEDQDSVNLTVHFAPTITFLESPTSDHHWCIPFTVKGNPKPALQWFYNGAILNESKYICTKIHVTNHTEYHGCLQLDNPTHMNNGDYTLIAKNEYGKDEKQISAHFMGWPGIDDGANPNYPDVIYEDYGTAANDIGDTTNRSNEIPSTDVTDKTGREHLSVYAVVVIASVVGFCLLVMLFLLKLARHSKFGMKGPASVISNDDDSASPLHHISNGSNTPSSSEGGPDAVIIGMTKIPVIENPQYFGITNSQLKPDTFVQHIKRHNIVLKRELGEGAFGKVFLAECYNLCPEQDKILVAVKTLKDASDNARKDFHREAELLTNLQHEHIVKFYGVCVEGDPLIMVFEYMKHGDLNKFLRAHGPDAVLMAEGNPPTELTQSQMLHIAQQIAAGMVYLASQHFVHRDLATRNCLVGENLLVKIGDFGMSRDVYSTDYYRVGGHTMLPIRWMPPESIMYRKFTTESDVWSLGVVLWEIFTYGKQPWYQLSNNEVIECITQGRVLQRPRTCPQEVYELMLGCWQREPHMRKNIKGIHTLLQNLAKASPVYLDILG
Ba/F3 EML4-ALK v1 I1171N/D1203N, sequence (Q9UM73 other isoform, or with tags, fused parts or gaps I1171N/D1203N): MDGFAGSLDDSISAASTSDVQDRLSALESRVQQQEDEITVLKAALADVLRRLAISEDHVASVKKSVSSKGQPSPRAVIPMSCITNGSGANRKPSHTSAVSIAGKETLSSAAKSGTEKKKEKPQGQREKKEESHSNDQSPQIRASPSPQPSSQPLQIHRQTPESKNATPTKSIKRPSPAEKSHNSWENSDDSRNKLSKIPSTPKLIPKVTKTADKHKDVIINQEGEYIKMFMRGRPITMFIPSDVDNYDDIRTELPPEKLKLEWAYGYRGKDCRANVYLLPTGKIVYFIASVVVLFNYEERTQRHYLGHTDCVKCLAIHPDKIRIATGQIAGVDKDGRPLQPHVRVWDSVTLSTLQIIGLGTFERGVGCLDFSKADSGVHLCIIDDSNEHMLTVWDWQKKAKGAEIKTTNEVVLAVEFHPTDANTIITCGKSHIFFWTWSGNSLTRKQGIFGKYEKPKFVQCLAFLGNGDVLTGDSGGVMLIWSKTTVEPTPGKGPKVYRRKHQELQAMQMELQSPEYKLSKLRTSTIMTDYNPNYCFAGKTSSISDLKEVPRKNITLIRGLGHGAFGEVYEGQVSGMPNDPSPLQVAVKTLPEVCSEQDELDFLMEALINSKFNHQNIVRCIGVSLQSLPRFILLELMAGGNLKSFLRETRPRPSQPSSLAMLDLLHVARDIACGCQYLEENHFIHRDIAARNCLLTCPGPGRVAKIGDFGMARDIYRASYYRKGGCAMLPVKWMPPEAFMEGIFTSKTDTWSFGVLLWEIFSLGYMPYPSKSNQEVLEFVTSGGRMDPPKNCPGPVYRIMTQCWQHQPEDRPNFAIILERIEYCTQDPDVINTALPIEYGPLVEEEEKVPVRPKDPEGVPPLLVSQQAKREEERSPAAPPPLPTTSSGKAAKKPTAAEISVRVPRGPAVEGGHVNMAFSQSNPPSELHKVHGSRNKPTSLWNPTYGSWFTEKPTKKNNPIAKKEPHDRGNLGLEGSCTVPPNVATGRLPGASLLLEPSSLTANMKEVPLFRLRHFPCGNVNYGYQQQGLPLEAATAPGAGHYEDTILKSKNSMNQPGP
ALK I1171N/D1203N, sequence (Q9UM73 1116-1392 I1171N/D1203N): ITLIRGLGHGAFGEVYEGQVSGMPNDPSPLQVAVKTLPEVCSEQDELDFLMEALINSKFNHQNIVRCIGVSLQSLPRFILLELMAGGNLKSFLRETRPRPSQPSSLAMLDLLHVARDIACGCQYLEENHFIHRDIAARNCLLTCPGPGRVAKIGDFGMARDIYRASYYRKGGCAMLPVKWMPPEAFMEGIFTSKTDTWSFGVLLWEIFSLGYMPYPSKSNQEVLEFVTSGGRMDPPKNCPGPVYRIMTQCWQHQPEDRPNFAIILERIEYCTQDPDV
TRKB-wt, sequence (Q16620 538-807): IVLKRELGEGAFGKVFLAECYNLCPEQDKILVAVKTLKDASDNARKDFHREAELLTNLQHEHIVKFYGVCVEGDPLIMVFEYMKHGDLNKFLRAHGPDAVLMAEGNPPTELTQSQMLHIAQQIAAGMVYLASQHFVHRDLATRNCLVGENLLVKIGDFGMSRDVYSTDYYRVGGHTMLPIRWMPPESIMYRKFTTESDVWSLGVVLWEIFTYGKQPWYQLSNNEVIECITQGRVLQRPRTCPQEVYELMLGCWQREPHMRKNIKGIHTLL
ROS1, sequence (P08922 1945-2222): as the sequence (P08922 1945-2222 G2032R) above, with R88G counted along it
Ba/F3 EML4-ALK v1 I1171N, sequence (Q9UM73 other isoform, or with tags, fused parts or gaps I1171N): as the sequence (Q9UM73 other isoform, or with tags, fused parts or gaps I1171N/D1203N) above, with N642D counted along it

Structure (SMILES)	pIC50 [1]	pKi [2]	pKi [3]	pIC50 [4]	pIC50 [5, 9]	pKi [6]	pKi [7]	ETV6-TRKB / EML4-ALK v1 I1171N/D1203N [1, 8]	ETV6-TRKB / EML4-ALK v1 I1171N [4]	pIC50 ([5]; read-out: ETV6-TRKB IC50; Ba/F3 stable cells, 72 hours, CellTiter-Glo)	Selectivity for Ba/F3 EML4-ALK v1 I1171N-D1203N IC50 over Ba/F3 ETV6-TRKB IC50 ([1]; TRKB selectivity, ratio of Ba/F3 IC50 values, Table 6 bins)
C[C@H]1Oc2cc(cnc2N)-c2c(C#N)nn(C(=O)N(C)C)c2Cc2cccnc2-c2ccc(F)cc21 [Example 27, N,N-dimethyl-(R)-23-amino-3-cyano-17-fluoro-20-methyl-21-oxa-4,5,12,24-tetraazapentacyclo[20.3.1.0^2,^6.0^8,^13.0^14,^19]hexacosa-1(25),2(6),3,8(13),9,11,14,16,18,22(26),23-undecaene-5-carboxamide]	7.30 to 10.00	> 7.30	> 7.30	7.30 to 10.00		> 7.30	> 7.30	A (bin A for very high selectivity, ratio≥30-fold)	A (bin A for very high selectivity, ratio≥30-fold)	6.30 to 7.30	
C[C@H]1Oc2cc(cnc2N)-c2c(nn(C)c2C#N)C(=O)c2cccnc2-c2ccc(F)cc21 [Example 49, (R)-23-amino-17-fluoro-4-methyl-20-methyl-7-oxo-21-oxa-4,5,12,24-tetraazapentacyclo[20.3.1.0^2,6.0^8,13.0^14,19]hexacosa-1(25),2,5,8(13),9,11.14,16,18,22(26),23-undecaene-3-carbonitrile]	7.30 to 10.00	> 7.30	6.30 to 7.30	7.30 to 10.00	6.30 to 7.30	> 7.30	6.30 to 7.30	A (bin A for very high selectivity, ratio≥30-fold)	A (bin A for very high selectivity, ratio≥30-fold)		AA (bin AA for the selectivity with the ratio≥30-fold)
Cc1nc2c(s1)Cc1c(c(C#N)nn1C(=O)N(C)C)-c1cnc(N)c(c1)O[C@H](C)c1cc(F)ccc1-2 [Example 58, N,N-dimethyl-(R)-22-amino-3-cyano-16-fluoro-10,19-dimethyl-20-oxa-9-thia-4,5,11,23-tetraazapentacyclo[19.3.1.0^2,^6.0^8,^12.0^13,^18]pentacosa-1(24),2(6),3,8(12),10,13,15,17,21(25),22-decaene-5-carboxamide]	6.30 to 7.30	> 7.30	6.30 to 7.30	7.30 to 10.00	< 6.30	> 7.30	> 7.30	C (bin C for moderate selectivity, ratio≥1 but<10)	A (bin A for very high selectivity, ratio≥30-fold)		

Continued, in another order:

pIC50 [1]	pKi [2]	pKi [3]	pIC50 [4]	pIC50 [5, 9]	pKi [6]	pKi [7]	Structure (SMILES)	ETV6-TRKB / EML4-ALK v1 I1171N/D1203N [1, 8]	ETV6-TRKB / EML4-ALK v1 I1171N [4]	pIC50 ([5]; read-out: ETV6-TRKB IC50; Ba/F3 stable cells, 72 hours, CellTiter-Glo)	Selectivity for Ba/F3 EML4-ALK v1 I1171N-D1203N IC50 over Ba/F3 ETV6-TRKB IC50 ([1]; TRKB selectivity, ratio of Ba/F3 IC50 values, Table 6 bins)
7.30 to 10.00	> 7.30	> 7.30	7.30 to 10.00	6.30 to 7.30	> 7.30	> 7.30	CCn1nc(C(=O)N(C)C)c2c1-c1cnc(N)c(c1)O[C@H](C)c1cc(F)ccc1-c1nn(C)cc1C2 [Example 7, N,N-dimethyl-(R)-22-amino-3-ethyl-16-fluoro-10-methyl-19-methyl-20-oxa-3,4,10,11,23-pentaazapentacyclo[19.3.1.0^2,6.0^8,12.0^13,18]pentacosa-1(24),2(6),4,8,11,13,15,17.21(25),22-decaene-5-carboxamide]	C (bin C for moderate selectivity, ratio≥1 but<10)	B (bin B for high selectivity, ratio≥10-fold but<30)		
7.30 to 10.00	> 7.30	6.30 to 7.30	7.30 to 10.00	< 6.30	> 7.30	> 7.30	C[C@H]1Oc2cc(cnc2N)-c2c(c(C(=O)N(C)C)nn2CC2CC2)Cc2cn(C)nc2-c2ccc(F)cc21 [Example 8, N,N-dimethyl-(R)-22-amino-3-(cyclopropylmethyl)-16-fluoro-10-methyl-19-methyl-20-oxa-3,4,10,11,23-pentaazapentacyclo[19.3.1.0^2,^6.0^8,^12.0^13,^18]pentacosa-1(24),2(6),4,8,11,13,15, 17,21(25),22-decaene-5-carboxamide]	A (bin A for very high selectivity, ratio≥30-fold)	A (bin A for very high selectivity, ratio≥30-fold)		
